Reference: ChEMBL document CHEMBL1201862, “PubChem BioAssay data set” (2004)
Activity calls are given as the source filed them.

Tests used:
[1] = target: Ras and Rab interactor 1/Tyrosine-protein kinase ABL1 (Homo sapiens, UniProt P00519+Q13671); assay type: functional;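 note: biochemical TR-FRET dose-response test measuring inhibition of binding between Rin1 and Abl proteins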
[2] = Luminescence Cell-Based Dose Confirmation HTS to Identify Activators of 5'UTR Stem-Loop Driven Alpha-Synuclein mRNA Translation in H4 Neuroglioblastoma Cells. [Related pubchem assays: 1829 (Project Summary), 1814 (Primary HTS)]; assay type: functional
[3] = Luminescence Cell-Based Dose Response HTS to Identify Activators of Luciferase Translation or Activity in H4 […] Cells. [Related pubchem assays: 1829 (Project Summary), 1814 (Primary HTS)]; assay type: functional
H4 = assay: Luminescence Cell-Based Dose Response HTS to Identify Activators of 5'UTR Stem-Loop Driven Prion Protein mRNA Translation in H4 Neuroglioblastoma Cells. [Related pubchem assays: 1829 (Project Summary), 1814 (Primary HTS)]; assay type: functional; conditions: Homo sapiens
[4] = target: T1, Sentrin-specific protease 8 (Homo sapiens, UniProt Q96LD8); assay: inhibition of human SENP8 cleavage activity – biochemical, luminescence, SAR follow-up (AID 504501); assay type: functional
T1 sequence (Q96LD8 whole entry): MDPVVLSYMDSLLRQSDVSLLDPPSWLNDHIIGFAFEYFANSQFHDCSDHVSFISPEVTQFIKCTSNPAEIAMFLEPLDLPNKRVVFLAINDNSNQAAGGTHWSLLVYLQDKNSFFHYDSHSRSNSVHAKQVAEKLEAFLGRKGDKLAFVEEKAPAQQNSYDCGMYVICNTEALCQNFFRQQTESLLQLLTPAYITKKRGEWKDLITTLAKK

Caspase-3 = target: T2, Caspase-3 (Homo sapiens, UniProt P42574); assay: SAR Analysis of small molecule inhibitors of Sentrin-specific proteases (SENPs) using a Caspase-3 Selectivity assay. [Related pubchem assays (depositor defined):AID2540, AID2599, AID434973, AID489001]; assay type: functional
T2 sequence (P42574 whole entry): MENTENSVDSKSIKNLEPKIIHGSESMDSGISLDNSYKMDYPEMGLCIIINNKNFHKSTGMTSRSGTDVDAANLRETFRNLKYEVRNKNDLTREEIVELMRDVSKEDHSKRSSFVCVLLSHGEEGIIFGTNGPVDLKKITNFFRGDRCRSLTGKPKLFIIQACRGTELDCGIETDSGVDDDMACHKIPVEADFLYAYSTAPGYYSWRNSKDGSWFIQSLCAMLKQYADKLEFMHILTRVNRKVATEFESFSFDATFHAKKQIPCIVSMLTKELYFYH

[5] = target: T3, Sentrin-specific protease 6 (Homo sapiens, UniProt Q9GZR1); assay: SAR Analysis of small molecule inhibitors of Sentrin-specific protease 6 (SENP6) using a Luminescent assay. [Related pubchem assays (depositor defined):AID2582, AID2599]; assay type: functional
T3 sequence (Q9GZR1 whole entry): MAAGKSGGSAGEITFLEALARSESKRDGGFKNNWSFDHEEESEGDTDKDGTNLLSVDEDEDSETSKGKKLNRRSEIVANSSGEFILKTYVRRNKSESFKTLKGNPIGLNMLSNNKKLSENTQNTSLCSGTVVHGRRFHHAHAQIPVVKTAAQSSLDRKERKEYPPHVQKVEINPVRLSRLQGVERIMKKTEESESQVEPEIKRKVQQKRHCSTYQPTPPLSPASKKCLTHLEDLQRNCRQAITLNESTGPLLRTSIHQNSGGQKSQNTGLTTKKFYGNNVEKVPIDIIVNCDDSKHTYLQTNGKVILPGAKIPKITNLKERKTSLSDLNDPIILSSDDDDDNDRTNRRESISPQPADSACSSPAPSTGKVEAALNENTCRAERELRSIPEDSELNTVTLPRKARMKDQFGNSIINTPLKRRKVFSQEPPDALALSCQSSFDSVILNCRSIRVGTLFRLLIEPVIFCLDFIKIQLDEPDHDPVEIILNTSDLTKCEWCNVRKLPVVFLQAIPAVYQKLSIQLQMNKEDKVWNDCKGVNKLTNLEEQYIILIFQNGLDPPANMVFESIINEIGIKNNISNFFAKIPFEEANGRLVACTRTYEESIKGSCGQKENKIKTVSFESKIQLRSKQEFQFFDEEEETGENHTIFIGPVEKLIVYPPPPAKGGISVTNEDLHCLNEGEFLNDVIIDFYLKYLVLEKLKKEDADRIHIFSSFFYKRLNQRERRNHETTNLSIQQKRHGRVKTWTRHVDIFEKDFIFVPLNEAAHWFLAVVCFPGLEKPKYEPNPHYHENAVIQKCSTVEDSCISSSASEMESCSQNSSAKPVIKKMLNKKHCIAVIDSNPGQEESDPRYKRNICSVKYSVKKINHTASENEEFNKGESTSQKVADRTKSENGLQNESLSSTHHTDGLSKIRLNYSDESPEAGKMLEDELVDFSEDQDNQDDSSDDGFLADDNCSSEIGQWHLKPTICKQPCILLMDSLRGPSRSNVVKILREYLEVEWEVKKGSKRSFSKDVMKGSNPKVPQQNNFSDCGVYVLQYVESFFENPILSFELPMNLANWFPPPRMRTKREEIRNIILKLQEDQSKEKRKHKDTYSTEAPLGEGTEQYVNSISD

[6] = target: T4, High affinity choline transporter 1 (Homo sapiens, UniProt Q9GZV3); assay: human choline transporter blockers, potency – cell-based, 5-point CRC, membrane potential dye, dose response (AID 504840); assay type: functional
T4 sequence (Q9GZV3 whole entry): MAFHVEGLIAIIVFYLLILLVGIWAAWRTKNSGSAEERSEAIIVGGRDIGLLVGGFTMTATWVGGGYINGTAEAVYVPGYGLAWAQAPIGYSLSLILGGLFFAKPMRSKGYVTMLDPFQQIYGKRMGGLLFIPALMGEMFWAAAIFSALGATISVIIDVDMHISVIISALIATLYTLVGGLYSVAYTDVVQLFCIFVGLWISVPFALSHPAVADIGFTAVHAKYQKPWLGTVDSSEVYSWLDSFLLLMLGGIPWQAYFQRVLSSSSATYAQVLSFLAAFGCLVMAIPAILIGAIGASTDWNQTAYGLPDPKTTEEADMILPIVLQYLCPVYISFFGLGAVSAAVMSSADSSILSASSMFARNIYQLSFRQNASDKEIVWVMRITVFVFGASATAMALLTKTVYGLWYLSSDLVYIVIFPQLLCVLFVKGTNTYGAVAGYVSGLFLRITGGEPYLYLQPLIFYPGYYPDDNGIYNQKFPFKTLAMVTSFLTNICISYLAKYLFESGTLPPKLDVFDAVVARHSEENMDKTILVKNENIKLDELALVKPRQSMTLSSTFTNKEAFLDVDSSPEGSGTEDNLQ

[7] = target: T4, High affinity choline transporter 1; assay: human choline transporter blockers, potency – cell-based, 10-point CRC, membrane potential dye, dose response (AID 588401); assay type: functional;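 note: membrane potential dye fluorescence of choline-evoked depolarization via CHT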
[8] = target: T5, DNA repair and recombination protein RAD54-like (Homo sapiens, UniProt Q92698); assay: RAD54 Holliday junction migration blockers – biochemical, fluorescence, cherry-picked samples, dose series, confirmation (AID 651657); assay type: functional
T5 sequence (Q92698 whole entry): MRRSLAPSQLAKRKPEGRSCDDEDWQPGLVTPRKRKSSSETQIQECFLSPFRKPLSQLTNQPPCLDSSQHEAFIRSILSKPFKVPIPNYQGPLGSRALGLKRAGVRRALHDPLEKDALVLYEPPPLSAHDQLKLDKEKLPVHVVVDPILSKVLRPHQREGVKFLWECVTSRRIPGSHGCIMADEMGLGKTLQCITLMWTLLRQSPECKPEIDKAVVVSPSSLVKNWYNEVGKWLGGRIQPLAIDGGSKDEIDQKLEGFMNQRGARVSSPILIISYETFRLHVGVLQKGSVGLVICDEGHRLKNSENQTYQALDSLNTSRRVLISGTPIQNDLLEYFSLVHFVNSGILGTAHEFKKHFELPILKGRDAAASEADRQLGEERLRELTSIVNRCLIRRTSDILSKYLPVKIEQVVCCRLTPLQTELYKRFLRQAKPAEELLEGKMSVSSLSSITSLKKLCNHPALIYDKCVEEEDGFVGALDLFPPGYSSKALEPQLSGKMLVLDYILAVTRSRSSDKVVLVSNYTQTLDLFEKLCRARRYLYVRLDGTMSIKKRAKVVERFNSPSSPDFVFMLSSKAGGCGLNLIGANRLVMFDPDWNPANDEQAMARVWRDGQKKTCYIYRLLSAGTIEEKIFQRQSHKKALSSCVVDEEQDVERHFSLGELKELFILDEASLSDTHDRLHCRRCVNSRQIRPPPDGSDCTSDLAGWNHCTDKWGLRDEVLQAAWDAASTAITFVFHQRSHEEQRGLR

[9] = target: T6, DNA repair protein RAD52 homolog (Homo sapiens, UniProt P43351); assay type: functional, biochemical
T6 sequence (P43351 whole entry): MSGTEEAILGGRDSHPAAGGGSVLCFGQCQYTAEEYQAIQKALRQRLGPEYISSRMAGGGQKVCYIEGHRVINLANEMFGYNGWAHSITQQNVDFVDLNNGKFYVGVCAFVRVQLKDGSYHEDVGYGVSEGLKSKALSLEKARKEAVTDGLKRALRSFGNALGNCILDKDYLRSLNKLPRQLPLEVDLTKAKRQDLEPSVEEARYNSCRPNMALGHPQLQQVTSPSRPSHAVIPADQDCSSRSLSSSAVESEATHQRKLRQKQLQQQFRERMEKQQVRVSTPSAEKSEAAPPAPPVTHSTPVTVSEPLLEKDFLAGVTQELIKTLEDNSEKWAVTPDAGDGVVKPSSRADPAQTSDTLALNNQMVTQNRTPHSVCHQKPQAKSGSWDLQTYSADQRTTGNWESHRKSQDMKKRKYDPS

[10] = target: T7, Short transient receptor potential channel 4 (Mus musculus, UniProt Q9QUQ5); assay: block of DAMGO-driven TRPC4 calcium entry – cell-based, HEK293 TRPC4/mu-opioid, Fluo-4 calcium, dose response (AID 434942); assay type: functional;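 note: potency of inhibitors blocking the TRPC4 calcium response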
T7 sequence (Q9QUQ5 whole entry): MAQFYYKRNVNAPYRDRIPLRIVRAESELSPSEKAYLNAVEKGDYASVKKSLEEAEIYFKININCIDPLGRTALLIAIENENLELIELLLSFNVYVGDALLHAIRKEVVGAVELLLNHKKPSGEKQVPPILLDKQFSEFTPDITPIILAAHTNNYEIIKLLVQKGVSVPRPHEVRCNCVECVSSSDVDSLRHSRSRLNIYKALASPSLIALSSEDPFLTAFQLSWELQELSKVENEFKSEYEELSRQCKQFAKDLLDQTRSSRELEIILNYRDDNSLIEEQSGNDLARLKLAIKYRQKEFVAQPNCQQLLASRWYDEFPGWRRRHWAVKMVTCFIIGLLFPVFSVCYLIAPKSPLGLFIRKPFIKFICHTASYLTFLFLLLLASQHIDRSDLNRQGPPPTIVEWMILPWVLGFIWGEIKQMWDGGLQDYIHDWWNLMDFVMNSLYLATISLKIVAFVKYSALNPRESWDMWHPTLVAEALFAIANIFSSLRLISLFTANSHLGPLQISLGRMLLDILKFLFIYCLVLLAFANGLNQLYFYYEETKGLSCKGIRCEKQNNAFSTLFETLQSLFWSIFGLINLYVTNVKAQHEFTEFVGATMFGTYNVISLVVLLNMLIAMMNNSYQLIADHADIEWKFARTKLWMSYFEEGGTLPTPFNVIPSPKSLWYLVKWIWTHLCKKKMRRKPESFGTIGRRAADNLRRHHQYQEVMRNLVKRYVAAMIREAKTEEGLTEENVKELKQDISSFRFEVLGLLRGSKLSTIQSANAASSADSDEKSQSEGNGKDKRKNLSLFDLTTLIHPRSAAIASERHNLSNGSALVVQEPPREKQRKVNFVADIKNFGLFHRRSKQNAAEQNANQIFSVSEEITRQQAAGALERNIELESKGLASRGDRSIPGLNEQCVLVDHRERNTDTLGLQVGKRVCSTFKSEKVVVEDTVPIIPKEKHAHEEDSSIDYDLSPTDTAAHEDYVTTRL

[11] = reduction of Shn3 3'UTR-driven luciferase in osteoblasts – cell-based, Clone20 osteoblasts, firefly luciferase, cherry-picked, dose response (AID 624132); assay type: functional;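 note: firefly luciferase luminescence from reporter carrying the Shn3 3'UTR in osteoblasts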
[12] = loss of viability in HepG2 cells – cell-based, CellTiter-Glo, cherry-picked, cytotoxicity control for Shn3 inhibitor project, dose response (AID 624134); assay type: functional
[13] = non-specific 3'UTR reporter inhibition in Clone20-Shn3RL – cell-based, Renilla luciferase, cherry-picked, counter-screen for Shn3 inhibitor project, dose response (AID 624133); assay type: functional
Protein Wnt-3a = Protein Wnt-3a (Mus musculus, UniProt P27467); assay: antagonism of Wnt3a pathway luciferase reporter – Wnt-LIGHT cells, luminescence, selectivity assay for Gli-SUFU antagonist project, dose response (AID 651570); assay type: functional; conditions: read-out: IC50_Mean;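 note: Wnt-LIGHT reporter cells stimulated with conditioned medium from Wnt3a-producing cells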
Chain of Protein Wnt-3a (P27467 whole entry): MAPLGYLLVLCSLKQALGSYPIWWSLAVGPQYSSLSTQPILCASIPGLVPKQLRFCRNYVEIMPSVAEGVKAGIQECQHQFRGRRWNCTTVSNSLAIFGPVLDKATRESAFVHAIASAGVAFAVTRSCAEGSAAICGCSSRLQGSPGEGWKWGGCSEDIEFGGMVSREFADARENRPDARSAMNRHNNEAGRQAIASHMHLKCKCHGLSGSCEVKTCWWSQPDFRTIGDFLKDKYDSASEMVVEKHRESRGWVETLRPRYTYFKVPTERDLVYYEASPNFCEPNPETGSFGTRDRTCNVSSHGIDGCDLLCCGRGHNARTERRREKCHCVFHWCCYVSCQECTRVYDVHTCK

Chain of Ras and Rab interactor 1/Tyrosine-protein kinase ABL1 (P00519 whole entry): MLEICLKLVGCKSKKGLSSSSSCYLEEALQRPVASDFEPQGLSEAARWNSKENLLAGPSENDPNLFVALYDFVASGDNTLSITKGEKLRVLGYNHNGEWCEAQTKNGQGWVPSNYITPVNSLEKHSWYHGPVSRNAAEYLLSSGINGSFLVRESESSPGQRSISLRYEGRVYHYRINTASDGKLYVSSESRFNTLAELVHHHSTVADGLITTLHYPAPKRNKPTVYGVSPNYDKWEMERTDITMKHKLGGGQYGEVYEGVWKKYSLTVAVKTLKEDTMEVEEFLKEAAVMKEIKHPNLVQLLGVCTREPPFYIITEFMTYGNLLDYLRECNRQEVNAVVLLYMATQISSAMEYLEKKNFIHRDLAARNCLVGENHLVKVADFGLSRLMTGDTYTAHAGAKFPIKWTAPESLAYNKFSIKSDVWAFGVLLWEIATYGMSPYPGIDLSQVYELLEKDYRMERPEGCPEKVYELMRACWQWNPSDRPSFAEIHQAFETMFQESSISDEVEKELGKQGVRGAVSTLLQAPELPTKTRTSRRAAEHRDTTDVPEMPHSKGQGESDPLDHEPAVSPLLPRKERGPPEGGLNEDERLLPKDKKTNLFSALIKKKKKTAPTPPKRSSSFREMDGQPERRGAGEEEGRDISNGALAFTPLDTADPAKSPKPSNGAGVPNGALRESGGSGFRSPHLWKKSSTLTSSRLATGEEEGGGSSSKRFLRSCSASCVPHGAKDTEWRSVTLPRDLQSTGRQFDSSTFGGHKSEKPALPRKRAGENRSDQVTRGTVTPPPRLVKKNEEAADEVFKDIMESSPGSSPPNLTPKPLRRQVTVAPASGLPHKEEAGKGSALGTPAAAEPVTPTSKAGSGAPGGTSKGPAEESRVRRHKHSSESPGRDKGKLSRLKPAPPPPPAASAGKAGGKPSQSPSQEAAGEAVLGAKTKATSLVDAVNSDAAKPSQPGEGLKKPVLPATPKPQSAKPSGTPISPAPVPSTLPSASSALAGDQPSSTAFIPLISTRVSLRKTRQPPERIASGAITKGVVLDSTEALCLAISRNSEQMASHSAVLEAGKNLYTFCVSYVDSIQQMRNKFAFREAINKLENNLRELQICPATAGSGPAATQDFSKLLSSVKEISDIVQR
Chain of Ras and Rab interactor 1/Tyrosine-protein kinase ABL1 (Q13671 whole entry): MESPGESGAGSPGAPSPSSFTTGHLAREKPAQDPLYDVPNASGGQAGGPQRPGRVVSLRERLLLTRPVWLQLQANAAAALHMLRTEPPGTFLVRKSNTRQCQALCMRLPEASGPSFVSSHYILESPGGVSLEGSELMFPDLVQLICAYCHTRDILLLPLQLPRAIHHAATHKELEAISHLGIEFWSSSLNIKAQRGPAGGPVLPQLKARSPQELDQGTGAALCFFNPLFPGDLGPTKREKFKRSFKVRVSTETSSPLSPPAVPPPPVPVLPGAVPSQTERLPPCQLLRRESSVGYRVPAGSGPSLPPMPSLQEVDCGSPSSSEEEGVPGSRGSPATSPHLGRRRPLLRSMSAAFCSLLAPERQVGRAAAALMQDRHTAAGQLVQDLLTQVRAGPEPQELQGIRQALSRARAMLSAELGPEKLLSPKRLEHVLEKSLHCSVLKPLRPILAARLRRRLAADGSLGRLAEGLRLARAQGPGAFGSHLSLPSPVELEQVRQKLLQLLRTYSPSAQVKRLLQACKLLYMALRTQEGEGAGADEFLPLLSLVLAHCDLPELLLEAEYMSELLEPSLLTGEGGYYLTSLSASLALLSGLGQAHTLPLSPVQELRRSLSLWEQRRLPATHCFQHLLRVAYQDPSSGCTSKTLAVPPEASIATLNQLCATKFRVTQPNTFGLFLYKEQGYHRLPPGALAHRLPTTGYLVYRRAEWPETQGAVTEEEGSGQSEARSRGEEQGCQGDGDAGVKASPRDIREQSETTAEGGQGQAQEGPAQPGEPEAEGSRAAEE

## CCCc1ncc(CN2CCC(C(=O)Nc3cccc(-c4cscn4)c3)CC2)cn1
[1]
  IC50: 22.3 µM (inactive)

## CC(=O)Nc1ccc(/C=C/c2n[nH]c(-c3ccccc3O)n2)cc1
[2]
  EC50: 2.79 µM (active)
[3]
  EC50: 13.6 µM (active)
H4
  EC50: 1.33 µM (active)
[4]
  IC50: > 99 µM (inactive)
Caspase-3
  IC50: 30 µM (active)
[5]
  IC50: > 99 µM (inactive)

## CCCN1CCN(CCCN=C(S)Nc2ccc3nc(N4CCN(CC)CC4)cc(C)c3c2)CC1
[6]
  IC50: 2.3 µM (active)
[7]
  IC50: 2.67 µM (active)
[8]
  AC50: 25.8 µM (active)
[9]
  AC50: 1.71 µM (active)

## Cc1c(C(=O)NCC(c2ccco2)N(C)C)oc2c(Cl)cccc12 (centres undefined)
[10]
  EC50: 0.267 µM (active)
[1]
  IC50: 5.07 µM (active)

## Cc1cc(C)nc(SCC(=O)Nc2ccc(N3CCOCC3)c(Cl)c2)n1
[11]
  AC50: 1.66 µM (active)
[12]
  AC50: > 70 µM (inactive)
[13]
  AC50: 3.13 µM (active)
Protein Wnt-3a
  IC50: 5.24 µM (active)

## CC(NC(=O)NC1CCCCC1)c1ccc2c(c1)OCO2 (centres undefined)
[6]
  IC50: 3.47 µM (active)
[7]
  IC50: 2.57 µM (active)

## COc1ccc(N(C)S(=O)(=O)c2cccc(C(=O)NC3CCCCC3C)c2)cc1 (centres undefined)
[6]
  IC50: 4.79 µM (active)
[7]
  IC50: 7.08 µM (active)

## O=C(Cn1cc(C(=O)C2CC2)c2ccccc21)Nc1ccccc1Cl
[11]
  AC50: 3.42 µM (active)
[13]
  AC50: 4.12 µM (active)
Protein Wnt-3a
  IC50: 5.2 µM (active)
